Paper PMC10491774 (Cell Death & Disease, 2023)

Biological target: 6-phosphofructo-2-kinase/fructose-2,6-bisphosphatase 3 (PFKFB3) (Homo sapiens, UniProt Q16875)
Experiment: ADP-Glo kinase assay with purified recombinant human PFKFB3; partial inhibition, only by the Ca2+-free form; counter assay done
Format: biochemical

Chain of 6-phosphofructo-2-kinase/fructose-2,6-bisphosphatase 3 (PFKFB3) (Q16875 whole entry): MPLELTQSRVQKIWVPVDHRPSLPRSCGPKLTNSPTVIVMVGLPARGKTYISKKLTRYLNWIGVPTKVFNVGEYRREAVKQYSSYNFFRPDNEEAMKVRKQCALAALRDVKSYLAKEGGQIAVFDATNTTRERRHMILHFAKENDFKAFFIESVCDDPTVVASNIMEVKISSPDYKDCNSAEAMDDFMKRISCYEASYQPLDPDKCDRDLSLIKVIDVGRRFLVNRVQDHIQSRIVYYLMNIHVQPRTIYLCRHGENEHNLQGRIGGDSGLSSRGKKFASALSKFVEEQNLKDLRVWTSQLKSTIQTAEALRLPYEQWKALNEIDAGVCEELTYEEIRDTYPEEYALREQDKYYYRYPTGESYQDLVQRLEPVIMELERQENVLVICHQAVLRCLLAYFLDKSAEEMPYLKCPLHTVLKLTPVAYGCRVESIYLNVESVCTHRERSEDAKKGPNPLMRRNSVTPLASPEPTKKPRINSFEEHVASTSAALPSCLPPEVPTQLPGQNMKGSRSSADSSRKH

IC50: 110 µM
SMILES: O=C(O)CN(CC(=O)O)c1ccccc1OCCOc1ccccc1N(CC(=O)O)CC(=O)O [BAPTA, 1,2-Bis-(o-Aminophenoxy)-ethane-N,N,N’,N’-tetraacetic acid]
